ChEMBL document CHEMBL4346721, “Small molecule PROTACs in targeted therapy: An emerging strategy to induce protein degradation” (Eur J Med Chem, 2019)

Assays:
[1] = molecular target: Protein cereblon/Peptidyl-prolyl cis-trans isomerase FKBP1A (Homo sapiens, UniProt P62942+Q96SW2); experiment: Protac activity against CRBN/FKBP12 (unknown origin) assessed as FKBP12 degradation by cell based assay
[2] = molecular target: T1, von Hippel-Lindau disease tumor suppressor/Androgen receptor (Homo sapiens, UniProt P10275+P40337); experiment: Protac activity against VHL/androgen receptor in human VCaP cells assessed as induction of androgen receptor protein degradation by Western blot analysis relative to control; assay type: cell-based
[3] = molecular target: T1, von Hippel-Lindau disease tumor suppressor/Androgen receptor; experiment: Protac activity against VHL/androgen receptor in human VCaP cells assessed as induction of androgen receptor protein degradation by Western blot analysis; assay type: cell-based
[4] = molecular target: von Hippel-Lindau disease tumor suppressor/Bromodomain-containing protein 3 (Homo sapiens, UniProt Q15059+P40337); experiment: Protac activity against VHL/BRD3 (unknown origin) assessed as […] protein degradation by cell based assay
von Hippel-Lindau disease tumor suppressor/Bromodomain-containing protein 3, sequence (Q15059 whole entry): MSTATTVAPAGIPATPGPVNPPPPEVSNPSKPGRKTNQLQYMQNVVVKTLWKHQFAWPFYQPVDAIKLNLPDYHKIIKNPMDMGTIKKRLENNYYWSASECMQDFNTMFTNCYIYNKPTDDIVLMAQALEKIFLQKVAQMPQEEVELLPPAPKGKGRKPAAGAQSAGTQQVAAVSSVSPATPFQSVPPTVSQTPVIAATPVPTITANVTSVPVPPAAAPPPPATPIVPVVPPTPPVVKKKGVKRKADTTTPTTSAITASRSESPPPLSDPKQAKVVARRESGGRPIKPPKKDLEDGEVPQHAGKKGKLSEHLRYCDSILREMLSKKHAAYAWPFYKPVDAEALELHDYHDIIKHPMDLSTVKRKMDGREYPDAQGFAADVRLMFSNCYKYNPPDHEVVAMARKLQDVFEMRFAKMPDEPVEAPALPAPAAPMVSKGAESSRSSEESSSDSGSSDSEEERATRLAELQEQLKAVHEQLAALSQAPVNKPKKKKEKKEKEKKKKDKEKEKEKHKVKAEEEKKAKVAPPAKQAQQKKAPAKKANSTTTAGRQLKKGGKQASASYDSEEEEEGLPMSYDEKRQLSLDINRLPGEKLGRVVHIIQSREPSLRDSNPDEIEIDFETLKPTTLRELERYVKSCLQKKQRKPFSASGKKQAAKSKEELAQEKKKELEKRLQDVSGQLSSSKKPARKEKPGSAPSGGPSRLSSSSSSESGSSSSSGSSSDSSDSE
von Hippel-Lindau disease tumor suppressor/Bromodomain-containing protein 3, sequence (P40337 whole entry): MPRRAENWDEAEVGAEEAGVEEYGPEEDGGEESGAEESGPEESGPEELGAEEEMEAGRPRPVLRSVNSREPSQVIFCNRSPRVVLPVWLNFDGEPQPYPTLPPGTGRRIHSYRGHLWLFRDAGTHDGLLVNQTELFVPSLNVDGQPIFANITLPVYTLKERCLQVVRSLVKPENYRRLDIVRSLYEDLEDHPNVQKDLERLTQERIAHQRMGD

[5] = molecular target: T2, von Hippel-Lindau disease tumor suppressor/Bromodomain-containing protein 2 (Homo sapiens, UniProt P25440+P40337); experiment: Protac activity against VHL/BRD2 (unknown origin) assessed as […] protein degradation by cell based assay
T2 sequence (P25440 whole entry): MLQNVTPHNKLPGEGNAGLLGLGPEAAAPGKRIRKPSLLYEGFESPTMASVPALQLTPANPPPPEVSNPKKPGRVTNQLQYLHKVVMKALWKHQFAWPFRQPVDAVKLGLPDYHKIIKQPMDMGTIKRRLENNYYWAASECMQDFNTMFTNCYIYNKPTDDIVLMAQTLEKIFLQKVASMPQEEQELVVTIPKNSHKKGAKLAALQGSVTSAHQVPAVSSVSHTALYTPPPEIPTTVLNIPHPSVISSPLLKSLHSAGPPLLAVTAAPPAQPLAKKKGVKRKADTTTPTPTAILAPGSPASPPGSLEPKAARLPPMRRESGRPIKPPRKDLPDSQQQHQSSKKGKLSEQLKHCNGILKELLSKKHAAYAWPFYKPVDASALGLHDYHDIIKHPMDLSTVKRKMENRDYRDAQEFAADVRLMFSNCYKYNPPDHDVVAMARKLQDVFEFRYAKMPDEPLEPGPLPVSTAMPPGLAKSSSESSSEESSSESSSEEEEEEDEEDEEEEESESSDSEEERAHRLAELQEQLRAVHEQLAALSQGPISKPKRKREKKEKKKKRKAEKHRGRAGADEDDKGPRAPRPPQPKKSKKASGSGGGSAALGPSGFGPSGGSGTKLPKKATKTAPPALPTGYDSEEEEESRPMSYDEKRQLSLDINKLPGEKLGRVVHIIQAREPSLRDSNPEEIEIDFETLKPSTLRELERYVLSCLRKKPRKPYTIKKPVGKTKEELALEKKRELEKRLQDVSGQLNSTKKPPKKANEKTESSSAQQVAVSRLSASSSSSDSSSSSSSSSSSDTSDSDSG
T2 sequence (P40337 whole entry): as the sequence (P40337 whole entry) above

[6] = molecular target: von Hippel-Lindau disease tumor suppressor/Bromodomain-containing protein 4 (Homo sapiens, UniProt O60885+P40337); experiment: Protac activity against VHL/BRD4 (unknown origin) assessed as induction of BRD4 protein degradation by cell based assay
von Hippel-Lindau disease tumor suppressor/Bromodomain-containing protein 4, sequence (P40337 whole entry, looked up, other chains not shown): as the sequence (P40337 whole entry) above

[7] = molecular target: Estrogen receptor/E3 ubiquitin-protein ligase XIAP (Homo sapiens) (UniProt P03372+P98170); experiment: Protac activity against xiap/ERalpha in human MCF7 cells assessed as reduction in ERalpha protein level at 3 nM relative to control; assay type: cell-based; design: scale not given: the % may be the effect or the level left
Estrogen receptor/E3 ubiquitin-protein ligase XIAP (Homo sapiens), sequence (P03372 whole entry, looked up): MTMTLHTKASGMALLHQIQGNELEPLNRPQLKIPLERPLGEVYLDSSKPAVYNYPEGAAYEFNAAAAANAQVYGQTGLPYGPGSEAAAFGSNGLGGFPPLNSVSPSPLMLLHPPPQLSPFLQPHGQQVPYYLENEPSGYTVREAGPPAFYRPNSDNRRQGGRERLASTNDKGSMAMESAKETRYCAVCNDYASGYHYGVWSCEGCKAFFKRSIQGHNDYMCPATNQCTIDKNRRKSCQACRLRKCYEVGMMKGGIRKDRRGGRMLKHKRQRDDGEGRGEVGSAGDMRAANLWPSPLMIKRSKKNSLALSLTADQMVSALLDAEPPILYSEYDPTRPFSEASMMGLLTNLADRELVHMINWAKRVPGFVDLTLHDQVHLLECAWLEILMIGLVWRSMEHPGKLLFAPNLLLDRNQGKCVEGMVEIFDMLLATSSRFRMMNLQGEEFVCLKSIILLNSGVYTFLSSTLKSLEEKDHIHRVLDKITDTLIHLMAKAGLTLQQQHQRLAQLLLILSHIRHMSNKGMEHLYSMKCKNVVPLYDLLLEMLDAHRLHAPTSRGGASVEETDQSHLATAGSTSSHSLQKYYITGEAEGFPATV
Estrogen receptor/E3 ubiquitin-protein ligase XIAP (Homo sapiens), sequence (P98170 whole entry, looked up): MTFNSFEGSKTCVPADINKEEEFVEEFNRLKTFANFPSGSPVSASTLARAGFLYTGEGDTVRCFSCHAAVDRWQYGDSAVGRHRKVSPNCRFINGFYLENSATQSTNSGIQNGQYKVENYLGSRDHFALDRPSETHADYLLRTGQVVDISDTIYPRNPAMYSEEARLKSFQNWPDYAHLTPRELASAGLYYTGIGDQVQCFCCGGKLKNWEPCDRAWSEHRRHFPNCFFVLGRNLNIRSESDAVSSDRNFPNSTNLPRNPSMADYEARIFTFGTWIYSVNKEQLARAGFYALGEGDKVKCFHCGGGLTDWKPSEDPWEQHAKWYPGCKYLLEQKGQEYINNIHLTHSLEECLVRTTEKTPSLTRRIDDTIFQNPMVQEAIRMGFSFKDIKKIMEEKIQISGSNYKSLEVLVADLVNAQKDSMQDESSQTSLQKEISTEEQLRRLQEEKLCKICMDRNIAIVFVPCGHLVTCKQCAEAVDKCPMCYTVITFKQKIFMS

[8] = molecular target: Protein cereblon/Histone acetyltransferase KAT2B (Homo sapiens, UniProt Q92831+Q96SW2); experiment: Protac activity against E3 ubiquitin ligase/PCAF in human THP-1 cells assessed as induction of PCAF protein degradation; assay type: cell-based
[9] = molecular target: Protein cereblon/Histone acetyltransferase KAT2A (Homo sapiens, UniProt Q92830+Q96SW2); experiment: Protac activity against E3 ubiquitin ligase/GCN5 in human THP-1 cells assessed as induction of GCN5 protein degradation; assay type: cell-based
[10] = molecular target: Protein cereblon/Tyrosine-protein kinase BTK (Homo sapiens, UniProt Q06187+Q96SW2); experiment: Protac activity at E3 ubiquitin ligase/BTK in human NAMALWA cells assessed as BTK degradation; assay type: cell-based
Protein cereblon/Tyrosine-protein kinase BTK, sequence (Q06187 whole entry): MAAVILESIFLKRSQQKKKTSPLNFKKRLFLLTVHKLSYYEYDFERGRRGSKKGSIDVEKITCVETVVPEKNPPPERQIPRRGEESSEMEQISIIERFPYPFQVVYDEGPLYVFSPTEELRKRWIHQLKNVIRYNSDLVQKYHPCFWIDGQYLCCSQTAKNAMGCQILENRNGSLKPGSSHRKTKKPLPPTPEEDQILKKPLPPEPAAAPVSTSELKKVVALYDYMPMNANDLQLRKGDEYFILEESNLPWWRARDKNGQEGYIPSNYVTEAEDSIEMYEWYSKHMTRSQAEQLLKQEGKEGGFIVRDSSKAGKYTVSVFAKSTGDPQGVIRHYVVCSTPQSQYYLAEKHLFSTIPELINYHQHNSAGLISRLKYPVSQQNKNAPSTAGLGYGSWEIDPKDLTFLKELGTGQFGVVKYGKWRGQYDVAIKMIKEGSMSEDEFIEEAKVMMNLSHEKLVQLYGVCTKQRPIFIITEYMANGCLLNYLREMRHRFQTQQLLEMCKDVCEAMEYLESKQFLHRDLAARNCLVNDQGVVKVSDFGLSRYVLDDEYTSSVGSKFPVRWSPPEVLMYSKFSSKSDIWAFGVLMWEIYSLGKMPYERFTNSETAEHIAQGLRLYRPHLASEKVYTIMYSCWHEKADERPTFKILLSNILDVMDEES
Protein cereblon/Tyrosine-protein kinase BTK, sequence (Q96SW2 whole entry): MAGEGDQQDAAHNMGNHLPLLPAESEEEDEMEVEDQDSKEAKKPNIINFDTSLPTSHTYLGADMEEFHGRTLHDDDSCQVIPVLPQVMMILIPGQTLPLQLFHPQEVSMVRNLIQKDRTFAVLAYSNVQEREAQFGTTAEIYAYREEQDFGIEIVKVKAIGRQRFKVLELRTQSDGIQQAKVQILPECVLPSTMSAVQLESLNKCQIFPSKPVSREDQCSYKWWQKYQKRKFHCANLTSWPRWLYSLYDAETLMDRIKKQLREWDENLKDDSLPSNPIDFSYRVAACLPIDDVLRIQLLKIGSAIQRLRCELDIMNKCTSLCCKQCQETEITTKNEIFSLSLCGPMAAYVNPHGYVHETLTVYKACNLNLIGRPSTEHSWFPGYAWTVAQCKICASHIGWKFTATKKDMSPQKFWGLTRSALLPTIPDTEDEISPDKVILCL

[11] = molecular target: Protein cereblon/Cyclin-dependent kinase 9 (Homo sapiens, UniProt P50750+Q96SW2); experiment: Protac activity against E3 ubiquitin ligase/CDK9 in human MCF7 cells assessed as induction of CDK9 protein degradation; assay type: cell-based
[12] = molecular target: von Hippel-Lindau disease tumor suppressor (Homo sapiens, UniProt P40337); experiment: Binding affinity to VHL in human THP-1 cells; assay type: cell-based
[13] = molecular target: T3, von Hippel-Lindau disease tumor suppressor/Receptor-interacting serine/threonine-protein kinase 2 (Homo sapiens, UniProt O43353+P40337); experiment: Protac activity against VHL/RIPK2 in human THP-1 cells assessed as induction of RIPK2 protein degradation; assay type: cell-based
[14] = molecular target: T3, von Hippel-Lindau disease tumor suppressor/Receptor-interacting serine/threonine-protein kinase 2; experiment: Protac activity against VHL/RIPK2 in human THP-1 cells assessed as induction of RIPK2 protein degradation at 10 nM relative to control; assay type: cell-based
[15] = molecular target: von Hippel-Lindau disease tumor suppressor/Myc proto-oncogene protein (Homo sapiens, UniProt P01106+P40337); experiment: Protac activity against VHL/c-Myc (unknown origin) assessed as induction of c-Myc protein degradation by cell based reverse phase protein array analysis
[16] = molecular target: T2, von Hippel-Lindau disease tumor suppressor/Bromodomain-containing protein 2; experiment: Protac activity against VHL/BRD2 in human 22Rvl cells assessed as induction of BRD2 protein degradation by reverse phase protein array analysis; assay type: cell-based
[17] = molecular target: T4, von Hippel-Lindau disease tumor suppressor/Mitogen-activated protein kinase 14 (Homo sapiens, UniProt Q16539+P40337); experiment: Protac activity at E3 ubiquitin ligase/p38alpha (unknown origin) assessed as p38alpha degradation by cell based assay
Target sequence in this assay (Q16539 whole entry): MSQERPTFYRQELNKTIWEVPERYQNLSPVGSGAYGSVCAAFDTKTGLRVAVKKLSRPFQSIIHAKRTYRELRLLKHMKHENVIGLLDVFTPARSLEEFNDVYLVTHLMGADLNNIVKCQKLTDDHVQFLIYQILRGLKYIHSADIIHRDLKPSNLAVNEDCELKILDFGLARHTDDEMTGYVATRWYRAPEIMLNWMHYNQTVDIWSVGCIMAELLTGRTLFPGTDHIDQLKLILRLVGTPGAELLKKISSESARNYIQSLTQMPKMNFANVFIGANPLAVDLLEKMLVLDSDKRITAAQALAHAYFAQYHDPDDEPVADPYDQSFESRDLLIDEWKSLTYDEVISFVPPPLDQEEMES
Target sequence in this assay (P40337 whole entry): as the sequence (P40337 whole entry) above

[18] = molecular target: T4, von Hippel-Lindau disease tumor suppressor/Mitogen-activated protein kinase 14; experiment: Protac activity at E3 ubiquitin ligase/p38alpha (unknown origin) assessed as p38alpha degradation by cell based assay relative to control
[19] = molecular target: T5, von Hippel-Lindau disease tumor suppressor/Mitogen-activated protein kinase 13 (Homo sapiens, UniProt O15264+P40337); experiment: Protac activity at E3 ubiquitin ligase/p38delta (unknown origin) assessed as p38delta degradation by cell based assay
[20] = molecular target: T5, von Hippel-Lindau disease tumor suppressor/Mitogen-activated protein kinase 13; experiment: Protac activity at E3 ubiquitin ligase/p38delta (unknown origin) assessed as p38delta degradation by cell based assay relative to control

Q: Which DC50 [1] does the source give for `CCC(C)(C)C(=O)C(=O)N1CCCCC1C(=O)O[C@H](CCc1ccc(OC)c(OC)c1)c1cccc(NC(=O)CCC(=O)NCCCCNC(=O)COc2cccc3c2C(=O)N(C2CCC(=O)NC2=O)C3=O)c1` (stereo not given in full) here?
A: The DC50 was 10 nM.

Q: Which Emax [2] does the source give for `Cc1ncsc1-c1ccc(CNC(=O)[C@@H]2C[C@@H](O)CN2C(=O)[C@@H](NC(=O)COCCCCOc2ccc(-c3ccc(N4C(=S)N(c5ccc(C#N)c(C(F)(F)F)c5)C(=O)C4(C)C)cc3)cc2)C(C)(C)C)cc1` here?
A: The Emax was over 95%.

Q: What about the DC50 [3] of the same compound?
A: The DC50 was 5 nM.

Q: `Cc1ncsc1-c1ccc(CNC(=O)[C@@H]2[C@@H](F)[C@@H](O)CN2C(=O)[C@@H](NC(=O)COCCOCCOCCNC(=O)C[C@@H]2N=C(c3ccc(Cl)cc3)c3c(sc(C)c3C)-n3c(C)nnc32)C(C)(C)C)cc1` was tested. Which DC50 [4] did it give?
A: Its DC50 is 10 nM.

Q: And the DC50 [5]?
A: The DC50 was 10 nM.

Q: And the DC50 [6]?
A: Its DC50 is under 3 nM.

Q: `CC/C(=C(\c1ccc(O)cc1)c1ccc(OCCN(C)C(=O)COCCOCCOCCOc2cccc(C(=O)c3csc([C@@H]4CCCN4C(=O)[C@@H](NC(=O)[C@H](C)NC)C4CCCCC4)n3)c2)cc1)c1ccccc1` was tested. Which Activity [7] did it give?
A: The Activity was 50%.

Q: How did the DC50 [8] turn out when `CN1C[C@H](Nc2cnn(C)c(=O)c2Br)C[C@H](c2ccc(C(=O)N(C)CCCN(C)c3ccc(CCCOc4cccc5c4C(=O)N(C4CCC(=O)NC4=O)C5=O)cc3)cc2)C1` (mixture of isomers) was run?
A: Its DC50 is 1.5 nM.

Q: And the DC50 [9]?
A: The DC50 was 3 nM.

Q: Which DC50 [10] does the source give for `Nc1ncnc2c1c(-c1ccc(Oc3ccccc3)cc1)nn2C1CCN(CCOCCOCC(=O)Nc2ccc3c(c2)C(=O)N(C2CCC(=O)NC2=O)C3=O)CC1` (stereo not given) here?
A: The DC50 was 9.1 nM.

Q: Which IC50 [11] does the source give for `O=C1CCC(N2C(=O)c3cccc(NC(=O)CCCCCCCn4cc(COc5c(O)cc(O)c6c(=O)cc(-c7ccccc7)oc56)nn4)c3C2=O)C(=O)N1` (stereo not given) here?
A: The IC50 was 523 nM.

Q: For `Cc1ncsc1-c1ccc(CNC(=O)[C@@H]2C[C@@H](O)CN2C(=O)[C@@H](NC(=O)COCCOCCOCCOCCOc2cc3nccc(Nc4ccc5scnc5c4)c3cc2S(=O)(=O)C(C)(C)C)C(C)(C)C)cc1`, which IC50 [12] is on record?
A: The IC50 was 656 nM.

Q: What about the DC50 [13] of the same compound?
A: Its DC50 is 1.4 nM.

Q: And the Emax [14]?
A: The Emax was over 95%.

Q: `Cc1ncsc1-c1ccc([C@H](C)NC(=O)[C@@H]2C[C@@H](O)CN2C(=O)[C@@H](NC(=O)COCCCOCCNC(=O)C[C@@H]2N=C(c3ccc(Cl)cc3)c3c(sc(C)c3C)-n3c(C)nnc32)C(C)(C)C)cc1` was tested. Which DC50 [15] did it give?
A: The DC50 was under 1 nM.

Q: What about the DC50 [16] of the same compound?
A: Its DC50 is under 5 nM.

Q: For `COc1cc2c(Oc3ccc(NC(=O)C4(C(=O)Nc5ccc(F)cc5)CC4)cc3F)ccnc2cc1OCCCCOCCCCOCC(=O)N[C@H](C(=O)N1C[C@H](O)C[C@H]1C(=O)NCc1ccc(-c2scnc2C)cc1)C(C)(C)C`, which DC50 [17] is on record?
A: Its DC50 is 7.16 nM.

Q: And the Emax [18]?
A: The Emax was 97.4%.

Q: How did the DC50 [19] turn out when `COc1cc2c(Oc3ccc(NC(=O)C4(C(=O)Nc5ccc(F)cc5)CC4)cc3F)ccnc2cc1OCCOCCOCCOc1cc(-c2scnc2C)ccc1CNC(=O)[C@@H]1C[C@@H](O)CN1C(=O)[C@H](C(C)C)N1Cc2ccccc2C1=O` was run?
A: Its DC50 is 46.2 nM.

Q: And the Emax [20]?
A: The Emax was 99.4%.
